What is called viability is a read-out of living cells in per cent, often relative to untreated cells.

Ends that are not written are not given here. Peptide text beside a SMILES is read from it. * marks the point of attachment. 5FAM = O=C1OC2(c3ccc(O)cc3Oc3cc(O)ccc32)c2ccc(C(=O)*)cc21

This note sets out measurements from patent publication US20130072424A1, “COMPOUNDS AND METHODS FOR PEPTIDE RIBONUCLEIC ACID CONDENSATE PARTICLES FOR RNA THERAPEUTICS” (MARINA BIOTECH, INC., priority 2005, published 2013).

The subject of series [1] is primary mouse tail fibroblast (MTF) cells. Kind of series: Peptide cell-uptake assay (FITC-labeled peptide, flow cytometry). The class given is cell-based. As to conditions: peptide 10 μM; for Peptide FITC MFI: relative values. As to the method:
The efficacy of the full-length and truncated forms of polypeptide PN73 to enter cells was tested in vitro by a cell-uptake assay with primary mouse tail fibroblast (MTF) cells. The number of cells in culture that receive the FITC-labeled peptide was measured by flow cytometry. The percentage peptide cell-uptake was expressed relative to the total number of cells present in the culture. In addition, the Mean Fluorescence Intensity (MFI) was used to evaluate the quantity of FITC-labeled peptide found within cells. MFI directly correlates with the amount of FITC-labeled peptide within the cell: higher relative MFI value correlates with a greater amount of intracellular FITC-labeled peptides. Peptides were evaluated at 0.63 μM, 2.5 μM and 10 μM concentrations; PN768 was tested at 2 μM, 10 μM and 50 μM. […]

For series [2], the system named is mouse tail fibroblast (MTF) cells. Nature of the series: siRNA cell-uptake assay and MFI (Cy5-conjugated siRNA, flow cytometry), Examples 14-16. The series is classed as cell-based. As to conditions: for % siRNA Cell-Uptake / siRNA Cy5 MFI: peptide 10 μM; for siRNA Cy5 MFI: relative values. As to the method: As described above, the cell-uptake assay determines the number of cells that receive Cy5-conjugated siRNA when complexed with a peptide. siRNA cell-uptake was assessed by flow cytometry (refer to Example 2 for details). Uptake was expressed as a percentage calculated by dividing the number of cells containing Cy5-conjugated siRNA by the total number of transfected and untransfected cells in culture. Mean Fluorescence Intensity (MFI) was measured by flow cytometry and determined the amount of Cy5-conjugated siRNA found within cells. The MFI value directly correlates with the amount of Cy5-conjugated siRNA within the cell, thus, a higher MFI value indicates a greater number of Cy5-conjugated siRNA within the cells.
The siRNA cell-uptake assay and MFI measurements were performed as described previously in Examples 2 and 3. […]
(In general: In flow cytometry, cells or beads pass a laser one at a time.)

For another series, the system named is hTNF-α mRNA. Kind of series: Knockdown of hTNF-α gene expression by siRNA/peptide complexes in LPS-stimulated human monocytes (branch DNA mRNA). The series is classed as cell-based. As to conditions: human monocytes; for siRNA knockdown activity of TNF-α mRNA, in words: siRNAs A19S21, 21/21 and LC20. As to the method:
Specifically, the ability of siRNA/peptide complexes to modulate expression of the human tumor necrosis factor-α (hTNF-α) gene was assessed. The significance of targeting the hTNF-α gene is that it is implicated in mediating the occurrence or progression of rheumatoid arthritis (RA) when over-expressed in human and other mammalian subjects.
Human monocytes were used as a model system to determine the effect of siRNA/peptide complexes on hTNF-α gene expression. Qneg represents a random siRNA sequence and functioned as the negative control. […] A19S21, 21/21 and LC20 are siRNAs that target hTNF-α mRNA.
Healthy human blood was purchased from Golden West Biologicals (CA), the peripheral blood mononuclear cells (PBMC) were purified from the blood using Ficoll-Pague plus (Amersham) gradient. Human monocytes were then purified from the PBMCs fraction using magnetic microbeads from Miltenyi Biotech. Isolated human monocytes were resuspended in IMDM supplemented with 4 mM glutamine, 10% FBS, 1× non-essential amino acid and 1× pen-strep, and stored at 4 C until use.
In a 96 well flat bottom plate, human monocytes were seeded at 100 K/well/100 μl in OptiMEM medium (Invitrogen). Exemplary polynucleotide delivery-enhancing polypeptides were mixed with 20 nM siRNA at a molar ratio of 1 to 5 in OptiMEM medium at room temperature for 5 minutes. At the end of incubation, FBS was added to the mixture (final 3%), and 50 μl of the mixture was added to the cells. The cells were incubated at 37° C. for 3 hours. After incubation, the cells were transferred to V-bottom plate and pelleted at 1500 rpm for 5 min. The cells were resuspended in growth medium (IMDM with glutamine, non-essential amino acid, and pen-strep). After an overnight incubation, the monocytes were stimulated by application of LPS (Sigma) at 1 ng/ml for 3 hours to increase expression of TNF-α expression levels. After induction by LPS, cells were collected as above for mRNA quantification, and supernatant was saved for protein quantification if desired.
For mRNA measurement, branch DNA technology from Genospectra (CA) was used according to manufacturer's specification. To quantitate mRNA level in the cells, both house keeping gene (cypB) and target gene (TNF-α) mRNA were measured, and the reading for TNF-α was normalized with cypB to obtain relative luminescence unit. […]

Series [3] concerns mouse tail fibroblast (MTF) cells. Nature of the series: Polypeptide mediated siRNA delivery screen (Cy5-siRNA cell-uptake and MFI), Example 17. As to conditions: for MFI measurement relative to the PN643 positive control, in words / MFI measurement relative to the positive control: Cy5-conjugated siRNA; for percent siRNA cell-uptake activity (Table 24): Cy5 conjugated LC20 siRNA, concentration not given. The class given is cell-based. As to the method:
siRNA uptake by cells was assessed by flow cytometry (refer to Example 2 for details). Uptake was expressed as a percentage calculated by dividing the number of cells containing Cy5-conjugated siRNA by the total number of transfected and untransfected cells in culture. Mean Fluorescence Intensity (MFI) was measured by flow cytometry and determined the amount of Cy5-conjugated siRNA found within cells. The MFI value directly correlates with the amount of Cy5-conjugated siRNA within the cell, thus, a higher MFI value indicates a greater number of Cy5-conjugated siRNA within the cells.

Another series in a line: in vitro. As to conditions: mouse, mouse tail fibroblast (MTF) cells.

Description for in vitro: Fluorescence activated cell sorting (FACS) analysis were performed using Beckman Coulter FC500 cell analyzer (Fullerton, Calif.). The instrument was adjusted according to the fluorescence probes used (FAM or Cy5 for siRNA and FITC and PE for CD14). Propidium iodide (Fluka, St Louis) and AnnexinV (R&D systems, Minneapolis) were used as indicators for cell viability and cytotoxicity. A brief step-by-step protocol is detailed below. • (a) After exposure to the complex of siRNA/peptide, cells were incubated for at least 3 hours. • (b) Wash cells with 200 μl PBS. • (c) Detach cells with 15 μl TE, incubate at 370 C. • (d) Re-suspend cells in five wells with 30 μl FACS solution (PBS with 0.5% BSA, and 0.1% sodium Azide). • (e) Combine all five wells into a tube. • (f) Add PI (Propidium iodide) 5 μl into each tube. • (g) Analyze the cells with fluorescence activated cell sorting (FCAS) according to manufacturer's instructions.
For siRNA uptake analysis, cells were washed with PBS, treated with trypsin (attached cells only), and then analyzed by flow cytometry. […] In order to differentiate the cellular uptake from the membrane insertion of fluorescence labeled siRNA, trypan blue was used to quench the fluorescence on the cell membrane surface.
FITC-tagged peptides were diluted in Opti-MEM® media (Invitrogen) for about 5 minutes at room temperature and then added to cells. Cells were transfected for 3 hours at and washed with PBS, treated with trypsin, and then analyzed by flow cytometry. Cell viability was determined as above. Cellular uptake was distinguished from the membrane insertion using trypan blue to quench any fluorescence on the cell membrane surface.

As to “KRSRKESYSVYVYKVLKQ-GK[EPSILON-5CFG-amide (KRSRKESYSVYVYKVLKQG-{K(5CF)-Gly-NH2}) [PN654]”, in series [1], the “% Peptide Cell-Uptake” value is reported as 95 (10 μM) % and the “Peptide FITC MFI” value was 10 (10 μM). In addition, in series [2], the “% siRNA Cell-Uptake” value was 27 (10 μM) % and the “siRNA Cy5 MFI” value is recorded as 14 (10 μM). For the same compound, in the series on hTNF-α mRNA, the “siRNA knockdown activity of TNF-α mRNA, in words” value is “moderate knockdown activity for both the A19S21 and 21/21 siRNAs but not for the LC20 siRNA”.
Consider “RQIKIWFQNRRMKWKK-amide (RQIKIWFQNRRMKWKK-NH2) [PN694, Penetratin]”, for which, in series [3], the “MFI measurement relative to the PN643 positive control, in words” value is “significantly lower” and the “percent siRNA cell-uptake activity (Table 24)” value was 54%.
For “GTAMRILGGVIPRKKRRQRRRPPQ-amide (GTAMRILGGVIPRKKRRQRRRPPQ-NH2) [PN734, m-Calpain + TAT]”, the “MFI measurement relative to the PN643 positive control, in words” value in series [3] is “significantly lower”.
Take “LGLLLRHLRHHSNLLANIPRKKRRQRRRPP-amide (LGLLLRHLRHHSNLLANIPRKKRRQRRRPP-NH2) [PN759]”: the “MFI measurement relative to the positive control” value in series [3] is on record as roughly 6 fold.
On to “KETWWETWWTEWSQPKKKRKV-amide (KETWWETWWTEWSQPKKKRKV-NH2) [PN682, Pep-1]”, for which the “MFI measurement relative to the PN643 positive control, in words” value in series [3] is on record as “comparable”.
For the compound `CC(C)C[C@H](NC(=O)[C@@H](NC(=O)[C@H](CCCCN)NC(=O)[C@H](Cc1ccc(O)cc1)NC(=O)[C@@H](NC(=O)[C@H](Cc1ccc(O)cc1)NC(=O)[C@@H](NC(=O)[C@H](CO)NC(=O)[C@H](Cc1ccc(O)cc1)NC(=O)[C@H](CO)NC(=O)[C@H](CCC(=O)O)NC(=O)[C@H](CCCCN)NC(=O)[C@@H](N)CCCNC(=N)N)C(C)C)C(C)C)C(C)C)C(=O)N[C@@H](CCCCN)C(=O)N[C@@H](CCC(N)=O)C(=O)NCC(=O)N[C@@H](CCCCNC(=O)c1ccc2c(c1)C(=O)OC21c2ccc(O)cc2Oc2cc(O)ccc21)C(=O)NCC(N)=O` [PN708] (H-RKESYSVYVYKVLKQGK(5FAM)G-NH2), in series [1], the “% Peptide Cell-Uptake” value is listed as 97 (10 μM) % and the “Peptide FITC MFI” value is on record as 10 (10 μM). In series [2], the “amount of Cy5-siRNA delivered into cells compared to the full-length PN73 (PN690) peptide” value is on record as “about doubled”, the “% siRNA Cell-Uptake” value is 42 (10 μM) % and the “siRNA Cy5 MFI” value was 34 (10 μM). In addition, the “maximum siRNA cell-uptake activity” value in series [2] (Cy5-LC20 siRNA, PN708 at 80 μM) amounted to 95%. Moreover, the KD entry on hTNF-α mRNA (knockdown of hTNF-α mRNA vs Qneg, siRNAs A19S21, 21/21, LC20 at 20 nM, molar ratio 1 to 5) was “+ (the peptide/siRNA complex had knockdown activity of 80% of the Qneg negative control siRNA (20% reduction in mRNA levels compared to the Qneg negative control))”. In the series with hTNF-α mRNA, the “siRNA knockdown activity of TNF-α mRNA, in words” value is on record as “no observable knockdown activity”. In “in vitro”, this compound came in with a viability at 3 h greater than 90%.
For the compound “RQIRIWFQNRRMRWRR-amide (RQIRIWFQNRRMRWRR-NH2) [PN714, PenArg]”, in series [3], the “MFI measurement relative to the PN643 positive control, in words” value is “significantly lower” and the “percent siRNA cell-uptake activity (Table 24)” value was 43%.
“RKKRRQRRRPPVAYISRGGVSTYYSDTVKGRFTRQKYNKRA-amide (RKKRRQRRRPPVAYISRGGVSTYYSDTVKGRFTRQKYNKRA-NH2) [PN760, TAT + Peptide P3a]”: the “MFI measurement relative to the positive control” value in series [3] is recorded as “approximately 13 fold”.
